Experimental data: US20100240603A1, “EXPRESSION INHIBITOR OF NUCLEAR TRANSCRIPTION FACTOR AP-1 AND PHARMACEUTICALS AND PRODUCTS USING THE SAME” (ARKRAY, INC., priority 2006, published 2010)
≈ marks a conversion by molar mass, not a printed value.

Tests used:
NF-κB = NF-κB SEAP reporter assay in TNF-alpha-stimulated HeLa cells; assay type: cell-based; conditions: TNF-alpha 40 ng/mL, 24 h
Experimental: (§1) HeLa cells were tripsinized and centrifuged at 4° C. and 1,000 rpm for 3 minutes. The collected Hela cells were seeded on a 30-mm dish so that the density was 2×10^5 cells/well, which served as a test plate. With the test plate being placed at 37° C. for 12 hours in the presence of 5% CO2, the cells were cultured and were then transformed. For the transformation, two types of vectors were transfected into the aforementioned cells using a transformation reagent (trade name: Effectene Transfection Reagent, QIAGEN). The vectors used herein were pNF-κB-SEAP (trade name) (CLONTECH) (0.4 μg) and pLuc-control (trade name) (CLONTECH) (0.02 μg). The cells transfected with both of the vectors were cultured at 37° C. for 16 hours in the presence of 5% CO2, and then the cultured cells were detached from the aforementioned test plate using trypsin. The detached cells were dispensed into a 96-well plate so that 0.2×10^4 cells were contained in each well. The cells thus dispensed were cultured for two hours. […] The medium thus collected was evaluated for the secreated alkaline phosphatase (SEAP) activity based on the activity of NF-κB contained in the medium using a kit (trade name: Great EscAPe SEAP kit, CLONTECK). […]

[1] = system: nuclear transcription factor AP-1; assay: nuclear transcription factor AP-1 SEAP reporter assay in TPA-stimulated HeLa cells; assay type: cell-based; conditions: TPA 4 μg/mL, 24 h
Experimental: as §1, with “were pAP-1 (PMA)-SEAP” for “were pNF-κB-SEAP”, “of the nuclear transcription factor AP-1” for “of NF-κB”, “the medium,” for “the medium”

IC50 (NF-κB; Homo sapiens, HeLa cells transfected with pNF-κB-SEAP and pLuc-control, corrected by luciferase activity, read-out: IC50 of inhibition of NF-κB expression (SEAP activity)): 80 µg/mL (≈ 139 µM)
IC50 ([1]; Homo sapiens, HeLa cells transfected with pAP-1 (PMA)-SEAP and pLuc-control, corrected by luciferase activity, read-out: IC50 of inhibition of nuclear transcription factor AP-1 expression (SEAP activity)): 5 µg/mL (≈ 8.67 µM)
Structure (SMILES): CC(O)(CC(=O)O)CC(=O)OCC1OC(Oc2cc(O)c3c(=O)cc(-c4ccc(O)cc4)oc3c2)C(O)C(O)C1O (stereo not shown) [chamaemeloside, apigenin 7-glucoside-6″-(3′″-hydroxy-3′″-methyl-glutarate)]
expression of NF-κB (FIG. 3) (NF-κB; HeLa cells): inhibited the expression of NF-κB in a concentration-dependent manner
expression of the nuclear transcription factor AP-1 (FIG. 2) ([1]; HeLa cells, 10, 5.0, 2.5, 1.0 μg/mL): suppressed (inhibited) in a concentration-dependent manner
